system: VEGF-induced HUVEC proliferation; assay: VEGF-induced HUVEC proliferation reaction evaluation system (cell proliferation inhibitory action test, WST-8); type: cell-based, human; conditions: HUVEC 2×10^3 cells per well in 100 μL; 5 μL of 20 μg/mL test compound solution per well; 5 μL of 400 ng/mL VEGF solution; WST-8 three days after VEGF, absorbance at 450 nm; control 1.0% DMSO
Procedure: In order to find the usefulness of the compound of the present invention, a test for inhibitory effects of the compound of the present invention on cell proliferation was carried out using a VEGF-induced HUVEC proliferation reaction evaluation system (HUVEC: human umbilical vein endothelial cells), which is a method of evaluating antiangiogenic effects of drugs, and the antiangiogenic effects of the compound were evaluated.
As one of the widely used methods of evaluating antiangiogenic effects of drugs, a cell proliferation inhibitory action test using a VEGF-induced HUVEC proliferation reaction evaluation system has been reported in Cancer Res., 59, 99-106 (1999). According to the method described in the above-mentioned document, a cell proliferation inhibitory action test of the compounds of the present invention was carried out, and the cell proliferation inhibition rate was calculated. Then, the antiangiogenic effect of each of the compounds of the present invention was evaluated using the obtained rate as an index.
Each test compound was dissolved in dimethyl sulfoxide (hereinafter abbreviated as DMSO), and the obtained solution was diluted with a commercially available phosphate buffer solution (hereinafter abbreviated as PBS), whereby a 20 μg/mL test compound solution was prepared.
HUVEC was suspended in F12K medium containing 0.5% fetal bovine serum (hereinafter abbreviated as FBS), whereby a 2×10^4 cells/mL HUVEC suspension was prepared.
VEGF was dissolved in PBS containing 0.1% bovine serum albumin, and the obtained solution was diluted with F12K medium containing 0.5% FBS, whereby a 400 ng/mL VEGF solution was prepared.
1) The HUVEC suspension was inoculated in an amount of 100 μL into each well of a 96-well plate coated with type I collagen (2×10^3 cells per well).
2) One day after the inoculation, the test compound solution was added in an amount of 5 μL per well.
3) One hour after the addition of the test compound solution, the VEGF solution was added in an amount of 5 μL per well.
4) Three days after the addition of the VEGF solution, WST-8 assay reagent (Dojin Chemical Co., Ltd.) was added in an amount of 10 μL per well.
5) After 3 hours, the above-mentioned plate was attached to an absorptiometer (Multilabel Counter ARVO), and an absorbance at 450 nm of suspension in each well (hereinafter referred to as a test compound suspension) was measured.
6) A test was carried out in the same manner as in the above 1) to 5) except that 1.0% DMSO was used instead of the test compound solution. The result was used as a control.
Incubation was carried out under conditions of 37° C., 5% carbon dioxide and […] in an incubator throughout the above-mentioned test steps.
The cell proliferation inhibition rate (%), which was used as an index of an antiangiogenic effect, was calculated using the following calculation equation.
(Calculation Equation) Cell proliferation inhibition rate (%)=100−{(Absorbance of test compound suspension−A)/(absorbance of control−A)}×100 A: Absorbance of only cell suspension (cells+medium) (Test Results and Discussion)

SMILES | Cell proliferation inhibition rate (%)
Cc1cc(C)cc(NC(=O)c2cccnc2SCc2cc[n+]([O-])c3ccccc23)c1 [Compound 1-35, N-(3,5-Dimethylphenyl)-2-(1-oxoquinolin-4-ylmethylthio)pyridine-3-carboxamide] | 100%

same assay, conditions: Homo sapiens, 72 h; HUVEC 2×10^3 cells per well in 100 μL; 5 μL of 20 μg/mL test compound solution per well; 5 μL of 400 ng/mL VEGF solution; WST-8 three days after VEGF, absorbance at 450 nm; control 1.0% DMSO; read-out: Cell proliferation inhibition rate (%)

SMILES | inhibition at 20 µg/mL (stock)
O=C(Nc1ccc(Cl)cc1)c1cccnc1SCc1ccnc2ccccc12 [Compound 1-1, N-(4-Chlorophenyl)-2-(quinolin-4-ylmethylthio)pyridine-3-carboxamide] | 100%
Cc1cc(C)cc(NC(=O)c2cccnc2SCc2ccnc3ccccc23)c1 [Compound 1-3, N-(3,5-Dimethylphenyl)-2-(quinolin-4-ylmethylthio)pyridine-3-carboxamide] | 100%
COc1ccc(CCNC(=O)c2ccccc2SCc2ccnc3ccccc23)cc1 [Compound 1-26, N-[2-(4-Methoxyphenyl)ethyl]-2-(quinolin-4-ylmethylthio)benzamide] | 97%
COc1cc2nccc(CSc3ncccc3C(=O)Nc3cc(C)cc(C)c3)c2cc1OC [Compound 1-30, 2-(6,7-Dimethoxyquinolin-4-ylmethylthio)-N-(3,5-dimethylphenyl)pyridine-3-carboxamide] | 70%
COc1cc2nccc(CSc3ncccc3C(=O)Nc3cccc(Cl)c3)c2cc1OC [Compound 1-31, N-(3-Chlorophenyl)-2-(6,7-dimethoxyquinolin-4-ylmethylthio)pyridine-3-carboxamide] | 88%
Cc1cccc(NC(=O)c2cccnc2SCc2ccnc3cc(Cl)c(Cl)cc23)c1 [Compound 1-33, 2-(6,7-Dichloroquinolin-4-ylmethylthio)-N-(3-methylphenyl)pyridine-3-carboxamide] | 100%
Cc1cc(C)cc(NC(=O)c2cccnc2SCc2ccc3ncccc3c2)c1 [Compound 1-36, N-(3,5-Dimethylphenyl)-2-(quinolin-6-ylmethylthio)pyridine-3-carboxamide] | 100%
O=C(Nc1cccc(Cl)c1)c1cccnc1SCc1ccc2ncccc2c1 [Compound 1-38, N-(3-Chlorophenyl)-2-(quinolin-6-ylmethylthio)pyridine-3-carboxamide] | 100%
Cc1cc(C)cc(NC(=O)c2cccnc2SCc2cnc3ccccc3c2)c1 [Compound 1-39, N-(3,5-Dimethylphenyl)-2-(quinolin-3-ylmethylthio)pyridine-3-carboxamide] | 100%
O=C(Nc1ccc(OC(F)(F)F)cc1)c1cccnc1SCc1ccnc2ccccc12 [Compound 2-1, 2-(Quinolin-4-ylmethylthio)-N-(4-trifluoromethoxyphenyl)pyridine-3-carboxamide] | 100%
Cc1cc(C)cc(NC(=O)c2ccccc2SCc2ccnc3ccccc23)c1 [Compound 2-2, N-(3,5-Dimethylphenyl)-2-(quinolin-4-ylmethylthio)benzamide] | 100%
O=C(Nc1ccc(Cl)cc1)c1ccccc1SCc1ccnc2ccccc12 [Compound 2-3, N-(4-Chlorophenyl)-2-(quinolin-4-ylmethylthio)benzamide] | 100%
Cc1cc(C)cc(NC(=O)c2sccc2SCc2ccnc3ccccc23)c1 [Compound 2-8, N-(3,5-Dimethylphenyl)-3-(quinolin-4-ylmethylthio)thiophene-2-carboxamide] | 100%
